Test results taken from the OPERA property sets (Mansouri et al. 2018).

Conditions: for log10 BCF / log10 biotransformation half-life (days): fish

Compound	boiling point [°C]	melting point [°C]	also measured
CCOP(=S)(OCC)SCS(=O)C(C)(C)C (stereo not drawn)	–	–	log10 Koc (L/kg): 2.18
Cc1cn(C)c2ccccc12	258	142	–
CCCC#CCCCC(=O)O	–	-3	–
CC1CCC2C(=O)OC(=O)C2C1 (stereo not drawn)	–	–	ready biodegradability: not readily biodegradable
O=[N+]([O-])c1ccc(Cl)cc1Cl	258	34	ready biodegradability: not readily biodegradable; log10 BCF: 2.07; log10 biotransformation half-life (days): 0.83
C/C(=N/Nc1nc(C)cc(C)n1)c1ccccc1C	–	176	log10 vapour pressure (mmHg): -7.51
Clc1cnc(Cl)c(Cl)c1	219	49	ready biodegradability: not readily biodegradable
CC[SiH](CC)CC	109	–	–
Clc1ccc(-c2nc3c4ccccc4ccn3n2)cc1	–	239	–
CC[B]CC	112	-56.3	–
CC(C)=C1CCC(C)CC1 (stereo not drawn)	173	–	–
COc1ccc(/C=C/C(=O)Nc2ccccc2C(=O)O)cc1OC	–	212	–
C=CCCCC=C	–	-129	–
Fc1cccc(F)c1	82.6	-69	log10 vapour pressure (mmHg): 1.92
N#CNC(=N)N	–	211	ready biodegradability: not readily biodegradable; log10 BCF: 0.49
O=C1C=C(Nc2ccccc2)C(=O)c2ccccc21	–	193	–
COc1cccc(OC)c1OC	235	48.5	–
CCc1ccc(C(C)=O)cc1	–	-20.6	log10 vapour pressure (mmHg): -0.0389
COC(=O)c1ccc(C(F)(F)F)nc1S(=O)(=O)[N]([Na])C(=O)Nc1nc(OC)cc(OC)n1	–	–	log10 Koc (L/kg): 1.46
CCn1ccnc1	208	–	–
CC(C)=CC(=O)NS(=O)(=O)c1ccc(N)cc1	–	184	–

Compound	boiling point [°C]	melting point [°C]	also measured
O=C(O)c1ccc2c(c1)OCO2	–	229	–
CC(C)(C)c1cc(-n2nc3ccc(Cl)cc3n2)c(O)c(C(C)(C)C)c1	–	–	ready biodegradability: not readily biodegradable; log10 BCF: 3.57; log10 biotransformation half-life (days): 0.72
CC1=CCC(C(C)C)C=C1 (stereo not drawn)	172	–	log10 vapour pressure (mmHg): 0.147
CCCCCCCC(=O)OC	193	-40	log10 Henry constant (atm·m³/mol): -3.11; log10 vapour pressure (mmHg): -0.267; ready biodegradability: not readily biodegradable
O=C(O)c1ccc(O)c(C(=O)O)c1	–	310	–
CN(C)CCn1cnc2c1c(=O)n(C)c(=O)n2C	–	95	–
CCCc1ccc2c(c1)OCO2	228	–	–
CC(C)F	-10	–	–
CC1=C[C@H](O)CC(C)(C)[C@H]1/C=C/C(C)=C/C=C/C(C)=C/C=C/C=C(C)/C=C/C=C(C)/C=C/C1=C(C)C[C@@H](O)CC1(C)C	–	196	–
CC(C)(C)C(=O)c1ccccc1	220	–	–
CCSC	66.7	-106	log10 vapour pressure (mmHg): 2.2
C[Si]1(c2ccccc2)O[Si](C)(c2ccccc2)O[Si](C)(c2ccccc2)O1 (stereo not drawn)	–	100	–
c1cc2c3c(c1)CCCN3CCC2	–	40	–
Oc1ccc(/N=N/c2ccccc2)cc1	–	155	log10 vapour pressure (mmHg): -6.64
O=C1c2ccccc2C(=O)c2cc(O)ccc21	–	306	log10 vapour pressure (mmHg): -10.2
CC(Cl)CC(Cl)Cl (stereo not drawn)	152	–	–
Clc1cccc2[nH]nnc12	–	–	log10 Koc (L/kg): 1.98
Oc1ccccc1N=Nc1ccccc1O	–	173	–
CC(C)(O)c1ccccc1	202	36	–
O=C(O)Cc1c[nH]c2ccccc12	–	168	–
CCC(=O)F	44	–	–

Compound	boiling point [°C]	melting point [°C]	also measured
CCCC(C)(O)CCC	161	-82	–
O=C(O)c1c(F)cc(F)cc1F	–	143	–
BrC1CCC(Br)C(Br)CCC1Br (stereo not drawn)	–	–	ready biodegradability: not readily biodegradable
CCP(c1ccccc1)c1ccccc1	293	–	–
CC[C@@H](CO)NCCN[C@@H](CC)CO	–	89	–
CC1CC(C)(C)CC(OOC(C)(C)C)(OOC(C)(C)C)C1 (stereo not drawn)	–	-30	ready biodegradability: not readily biodegradable; log10 BCF: 3.96
CC(CN1c2ccccc2Sc2ccccc21)N(C)C (stereo not drawn)	–	60	–
Cc1ccc(CC(C)C)cc1	196	–	–
CCOC(=O)CC#N	210	-22.5	log10 vapour pressure (mmHg): -1.41; ready biodegradability: readily biodegradable
CCCCN(CC)c1c([N+](=O)[O-])cc(C(F)(F)F)cc1[N+](=O)[O-]	370	66	log10 Koc (L/kg): 4.03; log10 vapour pressure (mmHg): -4.19; ready biodegradability: not readily biodegradable
C=CC(OCC)OCC	124	–	–
Cc1ccnc(C)c1	158	-64	log10 Henry constant (atm·m³/mol): -5.17; log10 vapour pressure (mmHg): 0.5; ready biodegradability: readily biodegradable
O=C1CCC(=O)N1c1ccccc1	400	156	–
C=NCC#N	–	129	–
NCCN	117	11.1	log10 Henry constant (atm·m³/mol): -8.76; log10 vapour pressure (mmHg): 1.08; ready biodegradability: readily biodegradable
CC(C)OC(=O)COc1cc(Cl)c(Cl)cc1Cl	–	45	–
C[C@H](O)CCCO	202	–	–
N#CCC=CCC#N	–	76	log10 vapour pressure (mmHg): -2.16
Cc1cc(=O)[nH]o1	–	86.5	log10 vapour pressure (mmHg): -2.86
NCCc1ccc(O)c(O)c1	–	128	–
O=C(O)C1CC1	183	18.5	log10 vapour pressure (mmHg): -0.62
